{"source": "patent US10172953B2", "about": "“XTEN conjugate compositions and methods of making same” (Amunix Operating Inc., priority 2012, dated 2019)", "key": {"[1]": {"test_system": "folate receptor-positive KB cell line", "assay": "CellTiter-Glo anti-proliferation assay on KB cells", "assay_type": "cell-based", "details": "absence of folic acid competitor, read-out: IC50 (cell killing)", "description": "The ability to selectively target and kill cells bearing folate receptors was evaluated. Test articles of free MMAE, a non-targeting 3×MMAE-XTEN conjugate (XTEN linked to toxin) and the folate receptor-targeted 3×FA(γ),3×MMAE-XTEN conjugate were evaluated in a CellTiter-Glo anti-proliferation assay using the folate receptor-positive KB cell line. As culture media contain high folic acid content, KB cells were grown in folic acid-free media containing 10% heat-inactivated fetal calf serum at 37° C., 5% C02 for at least 7 days prior to the commencement of the cell viability experiment, This medium was also utilized for the execution of the experiment. In brief, KB cells were plated at 10,000 cells per well onto a 96-well microtiter assay plate. KB cells were allowed to adhere to the plate by an overnight incubation at 37° C., 5% CO2. The spent media was then removed and wells designated to contain folic acid competitor received assay medium containing folic acid, while wells not designated to have folic acid competitor received assay medium only. The plate was incubated for 30 min at 37° C., 5% CO2 before the assay media was aspirated and plate washed with assay media. […] After the appropriate incubation period, CellTiter-Glo reagent was added and the plate was read on a luminometer. The IC50 of each test article was determined using a 4 parameter logistic curve fit using GraphPad Prism."}, "[2]": {"details": "unmodified peptide/protein, humans/patients; cited from earlier work"}, "[3]": {"details": "cited from earlier work"}, "[4]": {"details": "unmodified form, in words; cited from earlier work"}, "[5]": {"molecular_target": "human recombinant GLP-2 glucagon family receptor (human) (UniProt O95838)", "sequence (O95838 whole entry)": "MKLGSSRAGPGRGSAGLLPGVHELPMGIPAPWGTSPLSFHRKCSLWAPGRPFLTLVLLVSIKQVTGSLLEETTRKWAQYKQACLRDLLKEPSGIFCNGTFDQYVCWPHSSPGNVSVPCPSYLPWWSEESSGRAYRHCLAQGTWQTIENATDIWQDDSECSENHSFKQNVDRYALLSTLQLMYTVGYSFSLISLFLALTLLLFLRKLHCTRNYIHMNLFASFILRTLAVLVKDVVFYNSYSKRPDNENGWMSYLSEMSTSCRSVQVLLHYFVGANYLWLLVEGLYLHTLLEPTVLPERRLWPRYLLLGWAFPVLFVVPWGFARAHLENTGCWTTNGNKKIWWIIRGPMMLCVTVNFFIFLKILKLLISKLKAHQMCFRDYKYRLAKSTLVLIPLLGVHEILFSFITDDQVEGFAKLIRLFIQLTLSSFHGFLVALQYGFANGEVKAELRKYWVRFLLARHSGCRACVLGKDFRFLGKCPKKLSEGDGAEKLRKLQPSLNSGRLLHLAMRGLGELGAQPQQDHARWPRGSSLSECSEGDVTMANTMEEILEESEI", "assay": "cell-based or functional assay"}, "[6]": {"details": "rats, intravenous administration; cited from earlier work"}}, "note": "Where two headings read alike, the source gives them in different places. Square brackets hold non-standard residues; d marks the D form. Ends that are not written are not given here. Peptide text beside a SMILES is read from it. * marks the point of attachment. Dolaproine = CO[C@@H]([C@@H]1CCCN1)[C@@H](C)C(=O)O; Dil = CC[C@H](C)[C@H](NC)[C@@H](CC(=O)O)OC; X1 = C[C@@H](N*)[C@@H](O)c1ccccc1; NMeV = CN[C@H](C(=O)O)C(C)C", "data": [{"molecule": "CC[C@H](C)[C@@H]([C@@H](CC(=O)N1CCC[C@H]1[C@H](OC)[C@@H](C)C(=O)N[C@H](C)[C@@H](O)c1ccccc1)OC)N(C)C(=O)[C@@H](NC(=O)[C@@H](NC)C(C)C)C(C)C", "note": "[MMAE, monomethyl auristatin E] (H-[NMeV]V[Dil][Dolaproine]-X1)", "values": [{"measurement": "IC50", "setting": "[1]", "result": 0.8, "unit": "nM"}]}, {"molecule": "CC(C)[C@H]1C(=O)N[C@@H](CCCN=C(N)N)C(=O)NCC(=O)N[C@@H](CC(=O)O)C(=O)N[C@H](Cc2ccccc2)C(=O)N1C", "note": "[cilengitide, 2-[(2S,5R,8S,11S)-5-benzyl-11-{3-[(diaminomethylidene)amino]propyl}-7-methyl-3,6,9,12,15-pentaoxo-8-(propan-2-yl)-1,4,7,10,13-pentaazacyclopentadecan-2-yl]acetic acid, reference compound]", "values": [{"measurement": "half-life", "setting": "[2]", "result": "3 to 5", "unit": "h"}, {"measurement": "maximum drug concentration (poor solubility)", "setting": "[3]", "result": "≤ 15", "unit": "mg/mL"}]}, {"molecule": "α-MSH: 13-amino acid peptide N-Ac-SYSMGFRWGLPV (SEQ ID NO: 564) (not fully specified; printed as N-Ac-SYSMGFRWGLPV; ends and bridges not checked)", "values": [{"measurement": "half-life", "setting": "[4]", "result": "mere seconds"}]}, {"molecule": "conjugate GLP2-2G-XTEN (protein, part only; not given: added cysteine position, not shown: small tags and cut ends, N-terminal alpha-amino group modified with sulfo-SMCC and linked to GLP2-Cys; added cysteine thiol linked through the sulfo-SMCC cross-linker (maleimide) to the N-terminal alpha-amino group of the XTEN chain) peptide, part: HGDGSFSDEMNTILDNLAARDFINWLIQTKITD GSPGSPAGSPTSTEEGTSESATPESGPGTSTEPSEGSAPGSPAGSPTSTEEGTSTEPSEGSAPGTSTEPSEGSAPGTSESATPESGPGSEPATSGSETPGSEPATSGSETPGSPAGSPTSTEEGTSESATPESGPGTSTEPSEGSAPGTSTEPSEGSAPGSPAGSPTSTEEGTSTEPSEGSAPGTSTEPSEGSAPGTSESATPESGPGTSTEPSEGSAPGTSESATPESGPGSEPATSGSETPGTSTEPSEGSAPGTSTEPSEGSAPGTSESATPESGPGTSESATPESGPGSPAGSPTSTEEGTSESATPESGPGSEPATSGSETPGTSESATPESGPGTSTEPSEGSAPGTSTEPSEGSAPGTSTEPSEGSAPGTSTEPSEGSAPGTSTEPSEGSAPGTSTEPSEGSAPGSPAGSPTSTEEGTSTEPSEGSAPGTSESATPESGPGSEPATSGSETPGTSESATPESGPGSEPATSGSETPGTSESATPESGPGTSTEPSEGSAPGTSESATPESGPGSPAGSPTSTEEGSPAGSPTSTEEGSPAGSPTSTEEGTSESATPESGPGTSTEPSEGSAPGTSESATPESGPGSEPATSGSETPGTSESATPESGPGSEPATSGSETPGTSESATPESGPGTSTEPSEGSAPGSPAGSPTSTEEGTSESATPESGPGSEPATSGSETPGTSESATPESGPGSPAGSPTSTEEGSPAGSPTSTEEGTSTEPSEGSAPGTSESATPESGPGTSESATPESGPGTSESATPESGPGSEPATSGSETPGSEPATSGSETPGSPAGSPTSTEEGTSTEPSEGSAPGTSTEPSEGSAPGSEPATSGSETPGTSESATPESGPGTSTEPSEGSAPGR", "values": [{"measurement": "GPCR Ca2+ flux mobilization, EC50", "setting": "[5]", "result": 529, "unit": "nM"}]}, {"molecule": "follistatin: protein encoded by the FST gene (protein, UniProt P19883 30-344, looked up) Follistatin: GNCWLRQAKNGRCQVLYKTELSKEECCSTGRLSTSWTEEDVNDNTLFKWMIFNGGAPNCIPCKETCENVDCGPGKKCRMNKKNKPRCVCAPDCSNITWKGPVCGLDGKTYRNECALLKARCKEQPELEVQYQGRCKKTCRDVFCPGSSTCVVDQTNNAYCVTCNRICPEPASSEQYLCGNDGVTYSSACHLRKATCLLGRSIGLAYEGKCIKAKSCEDIQCTGGKKCLWDFKVGRGRCSLCDELCPDSKSDEPVCASDNATYASECAMKEAACSSGVLLEVKHSGSCNSISEDTEEEEEDEDQDYSFPISSILEW", "values": [{"measurement": "terminal half-life", "setting": "[6]", "result": "over 2 hours"}]}]}
